Measured values reported in patent US20030045541A1, “GABA-Receptor modulators with NMDA-Antagonistic activity” (priority 2001, published 2003).

Tests used:
glutamatergic EPSCs = experiment: Excitatory post-synaptic flows (EPSCs), patch-clamp on cultivated neurons; format: cell-based, Wistar; settings: P<0.05
Method: (§1) The measurements were produced on cultivated neurons of Wistar embryos on the eighteenth day of gestation. After the preparation, the neurons were grown on small plates. To this end, small cover glasses for microscopic preparations with a diameter of 12 mm (assistant) were used. In each case four of the small cover glasses were transferred to a small plastic dish (Nuncion).
(§2) As preparation media, the following solutions were used: GBSS (Grey's buffered salt solution, Sigma) supplemented with 10 mmol of HEPES (N-2-hydroxyethyl-piperazine-N-2-ethanesulfonic acid, Sigma), adjusted to pH 7.3 with NaOH (Sigma). […]
(§3) The measurements were carried out at room temperature. […] The thus modulated signals were visualized by means of a storage oscilloscope and recorded with a thermal plotter. At the same time, the signals were detected via a […] and recorded on a videotape. The stored data were later played back, digitalized again and then evaluated “offline” with a PC. […]
(§4) Excitatory post-synaptic flows (EPSCs) were isolated by adding the GABAA-receptor antagonists bicuculline (20 μm) and the GABAA-receptor antagonist picrotoxin (10 μm) that has an allosteric effect. […] The pure EPSCs that can now be detected could be blocked completely by adding 10 μm of NBQX and 30 μm of APV and thus are purely glutamatergic.

AMPA-ergic activity = experiment: Isolated AMPA-ergic activity of EPSCs (30 μm APV applied); format: cell-based, Wistar; settings: 30 μm of APV on isolated EPSCs; n=3
Method: as §1, §2, §3
as §4, with “glutamatergic. […]” for “glutamatergic.”

[1] = tested on: GABAA-receptor-mediated IPSCs; experiment: Inhibitory post-synaptic flows (IPSCs), patch-clamp on cultivated neurons; format: cell-based, Wistar
Method: as §1
As preparation media, the following solutions were used: GBSS (Grey's buffered salt solution, Sigma) supplemented with 10 mmol of HEPES (N-2-hydroxyethyl-piperazine-N-2-ethanesulfonic acid, Sigma), adjusted to pH 7.3 with NaOH (Sigma). As culture media, the following were used: DMEM (Sigma), glucose-containing, equine serum 10% (Sigma) and glutamine. The cells were generally divided so that at the beginning of the culture, 50,000 cells per small plate were present. The medium was changed according to the preparation after 24 hours and then changed after three days in each case. Synaptic spontaneous activity developed generally starting from the tenth day in vitro.
The extracellular measuring solution had the following composition (in mmol): NaCl 140; KCl 5.4; CaCl2 2; HEPES 10; MgCl 1; glucose 25. The pH was set at 7.4 with NaOH. IPSCs were isolated by adding 1,2,3,4,-tetrahydro-6-nitro-2,3-di-oxo-benzo-quinoxaline-7-sulfonamide (NBQX 10 μm) and DL-2-amino-5-phosphonovaleric acid (±-APV 30 μm). EPSCs were isolated by adding bicuculline (10 μm) and picrotoxin (20 μm). In the examination of the EPSCs, a ringer solution without MgCl2 was used. The pipette solution had the following composition (in mmol): KCl 120; MgCl2 2; CaCl2 1; HEPES 10; EGTA 11; glucose 20; the pH was 7.2.
as §3

[2] = tested on: primary cell cultures of cortical neurons of rats; experiment: Oxygen and glucose deprivation (OGD) model, LDH level in the medium; format: cell-based; settings: for LDH level: OGD, after 24 hours, OGD control 25.1
Method: The measurements were performed on primary cell cultures of cortical neurons of rats. After the cells were grown in culture, the following test was performed:
Glucose and oxygen were simultaneously removed from the culture solution. This model is a definitely sturdy model, which simulates the conditions during a very serious and very extensive stroke. In the zero comparison, the culture solution was left unchanged (BSS=balanced salt solution). In the control, oxygen and glucose were removed (OGD=oxygen and glucose deprivation); in the test group, Abecarnil was added simultaneously to the oxygen and glucose removal.
As damage parameters for the neurons, the LDH (lactate-dehydrogenase) level in the solution was measured by the cells. LDH is a definitely reliable stress parameter for the cells. The stronger the neuronal stress is or the more cells are already ruined, the more the LDH levels in the medium increase. From a pharmaceutical agent with a neuroprotective effect, it can be expected that it reduces the LDH level in the medium.
In FIG. 1, the values of such a measurement were depicted. If the LDH levels were below OGD 25.1, they were 11.0 with 0.1 μm of Abecarnil; 6.2 with 1 μm of Abecarnil; 14.9 with 10 μm of Abecarnil, and 15 with 100 μm of Abecarnil (after 24 hours). In the case of an Abecarnil concentration of 1 μm, this corresponds to an LDH reduction of over 75%!

NMDA receptor = experiment: Isolated NMDA portion of EPSCs (10 μm NBQX applied); format: cell-based, Wistar; settings: 10 μm of NBQX on isolated EPSCs, 1 μm of compound; n=7
Method: as §1, §2, §3
as §4, with “glutamatergic. […]” for “glutamatergic.”

COCc1c(C(=O)OC(C)C)ncc2[nH]c3ccc(OCc4ccccc4)cc3c12 [Abecarnil, 6-benzyloxy-4-methoxymethyl-β-carboline-3-carboxylic acid isopropyl ester]
EPSC amplitude, % of the starting value (glutamatergic EPSCs): 81.2±17.8%
EPSC frequency, % of the starting value (glutamatergic EPSCs): 32.6±19.8%
effect on isolated AMPA-ergic activity (AMPA-ergic activity): no effect
slow time constant of the averaged IPSCs (τslow), % of the starting value ([1]; P<0.05): 289.7±180.9%
IPSC frequency, % of the starting value ([1]; n=10, P<0.05): 33.8±24.7%
quick time constant of the averaged IPSCs (τfast), % of the starting value ([1]; no statistical significance): 143.9±51.0%
LDH level ([2]; 0.1 μm of Abecarnil): 11.0
LDH level ([2]; 1 μm of Abecarnil): 6.2
LDH reduction ([2]; 1 μm of Abecarnil, versus OGD): over 75%
LDH level ([2]; 10 μm of Abecarnil): 14.9
LDH level ([2]; 100 μm of Abecarnil): 15
effect on isolated NMDA portion of EPSC activity (NMDA receptor): completely blocked
